From patent US10040813B2, “Compounds as positive allosteric modulators for erythropoietin and erythropoietin receptor to treat erythropoietin deficiency diseases” (ACAHEALTH PHARMA & BIOTECH CO., LTD., priority 2015, dated 2018) come the findings set out here.

The subject of the test is cisplatin-induced nephropathy in mice. Kind of test: Cisplatin-induced nephropathy mouse model (anaemia and renal function). It counts as in vivo. The protocol: Forty six-to-seven-week-old C57Bl/6J male mice were i.p. injected with three doses of cisplatin (Sigma-Aldrich), following the scheme of 7, 6, and 6 mg·kg-1 body weight, at 4 to 5 day intervals, and the normal group (n=4) was injected with saline (FIG. 1 scheme). On day 12, the collected serum samples were assayed for the urea nitrogen content (BUN). Mice with BUN values greater than 80 mg·dL-1 were chosen for the experiment. An average seventy percent of injected mice were successful induced renal dysfunction, and the ineffective mice were excluded from the EH202 treating experiments. The mice were subsequently divided randomly into 4 cohorts comprising the control (Ctrl, n=6) and three EH202-treated groups (n=5 to 6 for each group) for an additional 2 weeks. Blood samples from all the mice were collected every 5 days. The RBC numbers were determined from the complete blood cell count using a Sysmex Kx-21 haematology analyser (Sysmex America), and the serum BUN and creatinine levels were determined using a commercial kit (Randox Laboratories Ltd. United Kingdom). All results are expressed as the mean±SEM. The statistical analysis was performed using Student's t-test. One-way ANOVA was used to examine the differences across the animal experimental groups. The posthoc differences between the means of the experimental groups were determined via Tukey's test. P<0.05 was considered significant.

Entries after “also recorded” stand apart in the source; their conditions may differ.

`OC[C@H]1OC(Oc2c(/C=C/c3ccc(F)cc3)ccc3ccccc23)[C@H](O)[C@@H](O)[C@@H]1O` (stereo partly drawn) [EH202, (Naphthanol-4′fluoro-stilbenzene)-1-O-β-D-glycoside]: the BUN levels result (10, 30 and 90 mg·kg-1 treatment groups, day 29, FIG. 2C) was “accelerates the recovery from renal dysfunction; also recorded: significantly recovered”. For the same compound, the “recovery of anaemia (HGB level, RBC numbers)” value (30 and 90 mg·kg-1, FIGS. 2D and 2E) was “increasing recovery of anaemia”. Further, the “recovery of renal dysfunction (creatinine level in the peripheral blood)” value (30 and 90 mg·kg-1 for 10 days, day 24, FIG. 2B) is recorded as “accelerates the recovery from renal dysfunction; also recorded: almost complete recovery of renal dysfunction”. In addition, the “recovery from anemia, hemoglobin (HGB) level in the peripheral blood” value (day 24, FIG. 2D) is on record as “accelerates the recovery from anemia”. For the setting “day 29, FIG. 2E”, the “recovery from anemia, RBC numbers in the peripheral blood” value is on record as “accelerates the recovery from anemia”.
